According to ChEMBL document CHEMBL5325488, “Discovery of SMD-3040 as a Potent and Selective SMARCA2 PROTAC Degrader with Strong in vivo Antitumor Activity” (J Med Chem, 2023):
The source made the active and inactive calls. The rule behind the calls is not given here.

Assays:
NCI-H1944 = assay: Antiproliferative activity against SMARCA4-deficient human NCI-H1944 cells assessed as cell growth inhibition by measuring maximal efficacy measured after 7 days by WST-8 assay relative to control; assay type: functional; details: time 7 day
[1] = target: T1, von Hippel-Lindau disease tumor suppressor/SWI/SNF-related matrix-associated actin-dependent regulator of chromatin subfamily A member 2 (Homo sapiens, UniProt P51531+P40337); assay: PROTAC activity at VHL/C-terminal HiBiT fused SMARCA2 in human HeLa cells assessed as induction of SMARCA2 degradation by measuring maximal efficacy incubated for 24 hrs by Nano-Glo HiBiT analysis relative to control; assay type: cell-based
Target sequence in this assay (P40337 whole entry, looked up, the tested form may be a part): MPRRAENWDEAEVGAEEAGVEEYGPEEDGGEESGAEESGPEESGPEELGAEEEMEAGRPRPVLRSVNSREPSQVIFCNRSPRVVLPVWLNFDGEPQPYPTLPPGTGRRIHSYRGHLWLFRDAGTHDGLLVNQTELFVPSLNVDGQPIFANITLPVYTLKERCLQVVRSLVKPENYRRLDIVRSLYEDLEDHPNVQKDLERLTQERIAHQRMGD
Target sequence in this assay (P51531 whole entry, looked up, the tested form may be a part): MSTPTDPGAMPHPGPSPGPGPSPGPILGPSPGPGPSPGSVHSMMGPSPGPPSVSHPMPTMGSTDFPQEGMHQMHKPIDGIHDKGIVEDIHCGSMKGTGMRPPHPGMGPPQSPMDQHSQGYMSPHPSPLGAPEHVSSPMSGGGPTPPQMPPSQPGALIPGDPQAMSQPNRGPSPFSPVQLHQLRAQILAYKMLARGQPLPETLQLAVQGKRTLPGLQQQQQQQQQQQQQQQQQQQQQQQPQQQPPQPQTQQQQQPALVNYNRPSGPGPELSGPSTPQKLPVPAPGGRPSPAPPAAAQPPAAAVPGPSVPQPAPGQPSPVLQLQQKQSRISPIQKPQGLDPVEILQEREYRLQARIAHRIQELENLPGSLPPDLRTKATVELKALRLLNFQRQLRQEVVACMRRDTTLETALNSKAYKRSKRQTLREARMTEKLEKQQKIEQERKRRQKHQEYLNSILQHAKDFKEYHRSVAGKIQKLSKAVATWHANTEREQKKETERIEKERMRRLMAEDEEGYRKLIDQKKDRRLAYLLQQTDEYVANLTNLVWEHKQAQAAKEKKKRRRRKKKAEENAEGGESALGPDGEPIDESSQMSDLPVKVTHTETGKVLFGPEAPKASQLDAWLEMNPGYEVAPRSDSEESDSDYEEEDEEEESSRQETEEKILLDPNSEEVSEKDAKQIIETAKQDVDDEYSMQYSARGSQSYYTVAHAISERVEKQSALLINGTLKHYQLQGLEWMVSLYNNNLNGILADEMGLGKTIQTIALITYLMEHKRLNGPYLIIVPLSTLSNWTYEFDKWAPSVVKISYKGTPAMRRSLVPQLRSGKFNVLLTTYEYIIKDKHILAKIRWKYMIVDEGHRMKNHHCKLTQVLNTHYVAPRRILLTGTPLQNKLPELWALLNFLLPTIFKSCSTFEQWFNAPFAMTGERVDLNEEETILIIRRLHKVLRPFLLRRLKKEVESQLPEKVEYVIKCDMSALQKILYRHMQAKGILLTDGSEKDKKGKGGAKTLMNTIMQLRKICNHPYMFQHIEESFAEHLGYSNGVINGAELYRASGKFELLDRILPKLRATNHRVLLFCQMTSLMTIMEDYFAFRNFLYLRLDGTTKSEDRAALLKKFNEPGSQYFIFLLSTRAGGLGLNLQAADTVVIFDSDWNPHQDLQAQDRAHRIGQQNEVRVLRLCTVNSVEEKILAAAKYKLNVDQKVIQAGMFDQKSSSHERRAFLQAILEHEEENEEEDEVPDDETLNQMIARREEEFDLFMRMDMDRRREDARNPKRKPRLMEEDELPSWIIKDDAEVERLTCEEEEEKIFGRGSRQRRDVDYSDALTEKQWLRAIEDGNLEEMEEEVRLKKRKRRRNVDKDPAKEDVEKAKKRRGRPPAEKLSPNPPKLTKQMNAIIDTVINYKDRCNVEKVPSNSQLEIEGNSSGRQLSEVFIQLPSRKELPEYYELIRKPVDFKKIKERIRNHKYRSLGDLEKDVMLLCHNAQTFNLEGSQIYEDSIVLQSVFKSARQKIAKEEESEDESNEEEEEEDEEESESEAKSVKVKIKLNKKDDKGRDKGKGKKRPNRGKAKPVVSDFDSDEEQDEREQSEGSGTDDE

[2] = target: T1, von Hippel-Lindau disease tumor suppressor/SWI/SNF-related matrix-associated actin-dependent regulator of chromatin subfamily A member 2; assay: PROTAC activity at VHL/C-terminal HiBiT fused SMARCA2 in human HeLa cells assessed as induction of SMARCA2 degradation incubated for 48 hrs by Nano-Glo HiBiT analysis; assay type: cell-based
NCI-H1299 = assay: Antiproliferative activity against SMARCA4-deficient human NCI-H1299 cells assessed as cell growth inhibition measured after 7 days by WST-8 assay; assay type: functional; details: NCI-H1299, 168 h, time 7 day
[3] = target: T1, von Hippel-Lindau disease tumor suppressor/SWI/SNF-related matrix-associated actin-dependent regulator of chromatin subfamily A member 2; assay: In vivo PROTAC activity at VHL/SMARCA2 in SCID mouse xenografted with human NCI-H838 cells assessed as reduction of SMARCA2 level in tumor at 50 mg/kg, iv administered as single dose measured after 96 hrs by Western blotting analysis; assay type: functional, organism-based; design: scale not given: the % may be the effect or the level left
Target sequence in this assay (P40337 whole entry, looked up, the tested form may be a part): as the sequence (P40337 whole entry, looked up, the tested form may be a part) above
Target sequence in this assay (P51531 whole entry, looked up, the tested form may be a part): as the sequence (P51531 whole entry, looked up, the tested form may be a part) above

[4] = Drug concentration in SCID mouse plasma xenografted with human MV4-11 cells at 50 mg/kg, iv measured after 96 hrs by LC-MS/MS method; assay type: ADME, organism-based
[5] = target: T1, von Hippel-Lindau disease tumor suppressor/SWI/SNF-related matrix-associated actin-dependent regulator of chromatin subfamily A member 2; assay: PROTAC activity at VHL/wild-type SMARCA2 in human SK-MEL-5 cells assessed as induction of SMARCA2 degradation at 0.001 to 1000 nM incubated for 24 hrs by Western blotting analysis relative to control; assay type: cell-based; details: dose 0.001-1000 nM
Target sequence in this assay (P40337 whole entry, looked up, the tested form may be a part): as the sequence (P40337 whole entry, looked up, the tested form may be a part) above
Target sequence in this assay (P51531 whole entry, looked up, the tested form may be a part): as the sequence (P51531 whole entry, looked up, the tested form may be a part) above

NCI-H1793 = assay: Antiproliferative activity against SMARCA4-deficient human NCI-H1793 cells assessed as cell growth inhibition by measuring maximal efficacy measured after 7 days by WST-8 assay relative to control; assay type: functional; details: time 7 day
[6] = target: T2, von Hippel-Lindau disease tumor suppressor/SWI/SNF-related matrix-associated actin-dependent regulator of chromatin subfamily A member 4 (Homo sapiens, UniProt P51532+P40337); assay: In vivo PROTAC activity at VHL/SMARCA4 in SCID mouse xenografted with human MV4-11 cells assessed as remaining activity in tumor at 50 mg/kg, iv administered as single dose measured after 96 hrs by Western blotting analysis (reference value: 100 +/- 15 % ); assay type: ADME, organism-based
Target sequence in this assay (P51532 whole entry): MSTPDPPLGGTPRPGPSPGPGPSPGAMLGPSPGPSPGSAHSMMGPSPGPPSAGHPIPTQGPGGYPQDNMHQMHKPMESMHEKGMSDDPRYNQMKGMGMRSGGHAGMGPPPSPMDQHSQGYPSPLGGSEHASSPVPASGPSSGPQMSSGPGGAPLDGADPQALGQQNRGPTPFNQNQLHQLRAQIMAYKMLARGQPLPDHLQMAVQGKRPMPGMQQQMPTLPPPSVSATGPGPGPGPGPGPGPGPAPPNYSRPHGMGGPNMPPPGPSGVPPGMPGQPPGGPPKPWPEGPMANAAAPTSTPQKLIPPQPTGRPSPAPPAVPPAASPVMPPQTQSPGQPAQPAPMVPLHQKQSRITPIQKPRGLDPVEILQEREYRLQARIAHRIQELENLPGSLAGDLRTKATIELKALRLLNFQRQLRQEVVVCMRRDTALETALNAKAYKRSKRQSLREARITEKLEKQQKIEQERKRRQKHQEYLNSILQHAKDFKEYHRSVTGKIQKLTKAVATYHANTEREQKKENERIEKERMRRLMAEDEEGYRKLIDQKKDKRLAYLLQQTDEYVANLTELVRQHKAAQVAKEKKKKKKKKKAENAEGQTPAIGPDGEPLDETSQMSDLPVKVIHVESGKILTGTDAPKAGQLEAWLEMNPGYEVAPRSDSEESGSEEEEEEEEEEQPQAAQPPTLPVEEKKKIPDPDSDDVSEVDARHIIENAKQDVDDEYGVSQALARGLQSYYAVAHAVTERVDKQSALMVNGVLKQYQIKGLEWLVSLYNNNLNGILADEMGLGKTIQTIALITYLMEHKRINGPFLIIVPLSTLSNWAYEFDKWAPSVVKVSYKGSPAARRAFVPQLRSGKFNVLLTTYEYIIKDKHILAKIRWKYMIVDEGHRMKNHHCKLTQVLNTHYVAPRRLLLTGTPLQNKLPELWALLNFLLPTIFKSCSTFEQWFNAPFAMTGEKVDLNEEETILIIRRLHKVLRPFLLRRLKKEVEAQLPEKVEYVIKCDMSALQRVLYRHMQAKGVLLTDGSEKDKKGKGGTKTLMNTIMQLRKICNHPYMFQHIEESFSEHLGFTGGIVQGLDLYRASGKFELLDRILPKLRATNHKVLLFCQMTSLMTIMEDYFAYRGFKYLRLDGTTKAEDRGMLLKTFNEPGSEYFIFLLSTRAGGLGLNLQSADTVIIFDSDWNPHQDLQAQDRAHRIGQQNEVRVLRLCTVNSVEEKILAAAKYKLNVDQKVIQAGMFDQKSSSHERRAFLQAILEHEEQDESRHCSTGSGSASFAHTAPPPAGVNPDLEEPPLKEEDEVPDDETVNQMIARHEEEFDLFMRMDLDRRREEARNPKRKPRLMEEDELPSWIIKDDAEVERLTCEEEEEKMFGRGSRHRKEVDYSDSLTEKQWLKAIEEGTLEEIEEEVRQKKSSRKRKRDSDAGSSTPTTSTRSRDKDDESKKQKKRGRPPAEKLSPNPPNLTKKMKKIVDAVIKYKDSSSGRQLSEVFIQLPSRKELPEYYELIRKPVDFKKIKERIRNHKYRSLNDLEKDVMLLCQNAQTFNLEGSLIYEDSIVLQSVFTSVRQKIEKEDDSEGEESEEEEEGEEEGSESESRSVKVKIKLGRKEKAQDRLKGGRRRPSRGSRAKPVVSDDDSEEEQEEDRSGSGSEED
Target sequence in this assay (P40337 whole entry): as the sequence (P40337 whole entry, looked up, the tested form may be a part) above

[7] = target: T1, von Hippel-Lindau disease tumor suppressor/SWI/SNF-related matrix-associated actin-dependent regulator of chromatin subfamily A member 2; assay: In vivo PROTAC activity at VHL/SMARCA2 in SCID mouse xenografted with human NCI-H838 cells assessed as remaining activity in tumor at 50 mg/kg, iv administered as single dose measured after 24 hrs by Western blotting analysis (reference value: 100 +/- 7% ); assay type: functional, organism-based
Target sequence in this assay (P40337 whole entry, looked up, the tested form may be a part): as above
Target sequence in this assay (P51531 whole entry, looked up, the tested form may be a part): as the sequence (P51531 whole entry, looked up, the tested form may be a part) above

[8] = target: T1, von Hippel-Lindau disease tumor suppressor/SWI/SNF-related matrix-associated actin-dependent regulator of chromatin subfamily A member 2; assay: PROTAC activity at VHL/C-terminal HiBiT fused SMARCA2 in human HeLa cells assessed as induction of SMARCA2 degradation at 0.0001 to 1 uM incubated for 1 hr by Nano-Glo HiBiT analysis relative to control; assay type: cell-based; details: dose 0.0001-1 µM
Target sequence in this assay (P40337 whole entry, looked up, the tested form may be a part): as the sequence (P40337 whole entry, looked up, the tested form may be a part) above
Target sequence in this assay (P51531 whole entry, looked up, the tested form may be a part): as the sequence (P51531 whole entry, looked up, the tested form may be a part) above

[9] = target: T1, von Hippel-Lindau disease tumor suppressor/SWI/SNF-related matrix-associated actin-dependent regulator of chromatin subfamily A member 2; assay: In vivo PROTAC activity at VHL/SMARCA2 in SCID mouse xenografted with human MV4-11 cells assessed as reduction of SMARCA2 level in tumor at 50 mg/kg, iv administered as single dose measured after 2 hrs by Western blotting analysis; assay type: ADME, organism-based; design: scale not given: the % may be the effect or the level left
[10] = target: T2, von Hippel-Lindau disease tumor suppressor/SWI/SNF-related matrix-associated actin-dependent regulator of chromatin subfamily A member 4; assay: In vivo PROTAC activity at VHL/SMARCA4 in SCID mouse xenografted with human MV4-11 cells assessed as reduction of SMARCA4 level in tumor at 50 mg/kg, iv administered as single dose measured after 2 hrs by Western blotting analysis; assay type: ADME, organism-based; design: scale not given: the % may be the effect or the level left
Target sequence in this assay (P51532 whole entry): as the sequence (P51532 whole entry) above
Target sequence in this assay (P40337 whole entry): as the sequence (P40337 whole entry, looked up, the tested form may be a part) above

[11] = target: T1, von Hippel-Lindau disease tumor suppressor/SWI/SNF-related matrix-associated actin-dependent regulator of chromatin subfamily A member 2; assay: In vivo PROTAC activity at VHL/SMARCA2 in SCID mouse xenografted with human NCI-H838 cells assessed as reduction of SMARCA2 level in tumor at 50 mg/kg, iv administered as single dose measured after 3 hrs by Western blotting analysis; assay type: functional, organism-based; design: scale not given: the % may be the effect or the level left
Target sequence in this assay (P40337 whole entry, looked up, the tested form may be a part): as above
Target sequence in this assay (P51531 whole entry, looked up, the tested form may be a part): as the sequence (P51531 whole entry, looked up, the tested form may be a part) above

[12] = target: T1, von Hippel-Lindau disease tumor suppressor/SWI/SNF-related matrix-associated actin-dependent regulator of chromatin subfamily A member 2; assay: In vivo PROTAC activity at VHL/SMARCA2 in SCID mouse xenografted with human NCI-H838 cells assessed as reduction of SMARCA2 level in tumor at 50 mg/kg, iv administered as single dose measured after 48 hrs by Western blotting analysis; assay type: functional, organism-based; design: scale not given: the % may be the effect or the level left
SK-MEL-5 = assay: Antiproliferative activity against SMARCA4-deficient human SK-MEL-5 cells assessed as cell growth inhibition by measuring maximal efficacy measured after 7 days by WST-8 assay relative to control; assay type: functional; details: time 7 day
[13] = target: T1, von Hippel-Lindau disease tumor suppressor/SWI/SNF-related matrix-associated actin-dependent regulator of chromatin subfamily A member 2; assay: PROTAC activity at VHL/C-terminal HiBiT fused SMARCA2 in human HeLa cells assessed as induction of SMARCA2 degradation pre-treated with MLN4924 for 2 hrs followed by compound treatment for 24 hrs by Nano-Glo HiBiT analysis; assay type: cell-based
[14] = target: T2, von Hippel-Lindau disease tumor suppressor/SWI/SNF-related matrix-associated actin-dependent regulator of chromatin subfamily A member 4; assay: PROTAC activity at VHL/C-terminal HiBiT fused SMARCA4 in human HeLa cells assessed as induction of SMARCA4 degradation incubated for 24 hrs by Nano-Glo HiBiT analysis; assay type: cell-based
Target sequence in this assay (P51532 whole entry): as the sequence (P51532 whole entry) above
Target sequence in this assay (P40337 whole entry): as the sequence (P40337 whole entry, looked up, the tested form may be a part) above

NCI-H647 = assay: Antiproliferative activity against human NCI-H647 cells expressing wild-type SMARCA2 assessed as cell growth inhibition measured after 7 days by WST-8 assay; assay type: functional; details: NCI-H647, 168 h, time 7 day
[15] = target: T2, von Hippel-Lindau disease tumor suppressor/SWI/SNF-related matrix-associated actin-dependent regulator of chromatin subfamily A member 4; assay: In vivo PROTAC activity at VHL/SMARCA4 in SCID mouse xenografted with human MV4-11 cells assessed as reduction of SMARCA4 level in tumor at 50 mg/kg, iv administered as single dose measured after 6 hrs by Western blotting analysis; assay type: ADME, organism-based; design: scale not given: the % may be the effect or the level left
Target sequence in this assay (P51532 whole entry): as the sequence (P51532 whole entry) above
Target sequence in this assay (P40337 whole entry): as the sequence (P40337 whole entry, looked up, the tested form may be a part) above

NCI-H1975 = assay: Antiproliferative activity against human NCI-H1975 cells expressing wild-type SMARCA2 assessed as cell growth inhibition measured after 7 days by WST-8 assay; assay type: functional; details: NCI-H1975, 168 h, time 7 day
[16] = target: T2, von Hippel-Lindau disease tumor suppressor/SWI/SNF-related matrix-associated actin-dependent regulator of chromatin subfamily A member 4; assay: In vivo PROTAC activity at VHL/SMARCA4 in SCID mouse xenografted with human MV4-11 cells assessed as remaining activity in tumor at 50 mg/kg, iv administered as single dose measured after 48 hrs by Western blotting analysis (reference value: 100 +/- 15 % ); assay type: ADME, organism-based
Target sequence in this assay (P51532 whole entry): as the sequence (P51532 whole entry) above
Target sequence in this assay (P40337 whole entry): as the sequence (P40337 whole entry, looked up, the tested form may be a part) above

[17] = Antiproliferative activity against SMARCA4-deficient human NCI-H1568 cells assessed as cell growth inhibition by measuring maximal efficacy measured after 7 days by WST-8 assay relative to control; assay type: functional; details: time 7 day
[18] = Drug concentration in SCID mouse tumor xenografted with human MV4-11 cells at 50 mg/kg, iv measured after 2 hrs by LC-MS/MS method; assay type: ADME, organism-based, Neoplasm; details: read-out: Ct
NCI-H838 = assay: Antitumor activity against SMARCA4-deficient human NCI-H838 cells xenografted in SCID mouse assessed as tumor growth inhibition at 50 mg/kg, iv administered twice a week measured after 3 weeks relative to control; assay type: functional; details: NCI-H838, 504 h, read-out: TGI
[19] = target: T2, von Hippel-Lindau disease tumor suppressor/SWI/SNF-related matrix-associated actin-dependent regulator of chromatin subfamily A member 4; assay: PROTAC activity at VHL/C-terminal HiBiT fused SMARCA4 in human HeLa cells assessed as induction of SMARCA4 degradation incubated for 1 to 48 hrs by Nano-Glo HiBiT analysis; assay type: cell-based; details: dose 0.001-10 µM, time 1-48 hrs

Emax [1]: 91%
DC50 [2]: 11 nM
GI50 (NCI-H1299): > 10 µM
Activity [3]: 67%
concentration at 96 h [4]: 19.6 ng/mL
Emax [5]: 94%
Activity [6]: 84%
Activity [7]: 9%
Emax [8]: 66%
Activity [9]: 78%
Activity [10]: 7%
Activity [11]: 70%
Activity [12]: 75%
Activity [13]: inactive
DC50 [14]: > 339 nM
GI50 (NCI-H647): 3.1 µM
Activity [15]: 17%
GI50 (NCI-H1975): > 10 µM
Activity [16]: 87%
concentration at 2 h [18]: 3420 ng/g
Activity [19]: Dose-Dependent Effect
Structure (SMILES): Cc1ncsc1-c1ccc([C@H](C)NC(=O)[C@@H]2C[C@@H](O)CN2C(=O)[C@@H](NC(=O)[C@H]2CC[C@H](CN3CC4(CCC(n5cc(-c6cc(-c7ccccc7O)nnc6N)cn5)CC4)C3)CC2)C(C)(C)C)cc1
Imax (NCI-H1944): 88%
Imax (NCI-H1793): 69%
Imax (SK-MEL-5): 95%
Imax [17]: 79%
inhibition in vivo at 50 mg/kg (NCI-H838): 81%
